# Measurements: patent US20250101063A1, “POLYPEPTIDE COMPOUND AND USE THEREOF IN TREATMENT OF ENTERITIS” (Sichuan Gooddoctor Panxi Pharmaceutical Co., Ltd., priority 2022, published 2025)
# Where no end group is shown, it is not given here. [ ]: non-standard residue; d: D form.
# Test system: zebrafish model of intestinal mucosal injury
# Assay: Efficacy in relieving colitis: intestinal lumen area in TNBS-treated zebrafish
# Assay type: in vivo
# Design: key to Activity in relieving intestinal lumen dilatation: * p < 0.05; ** p < 0.01; *** p < 0.001; “−“ indicates absence of activity; “+” indicates some relief of intestinal lumen dilatation; “#” indicates that all the zebrafishes died in the experiment; “&” indicates that 13 zebrafishes died in the experiment
# Details: 1000 μg/mL; significance vs model control group of the same batch
# Method: Experimental animals: Wild-type AB strain zebrafishes, bred by natural pair mating. Zebrafishes aged 3 days post fertilization (3 dpf). Zebrafishes were kept in fish farming water at 28° C. (water quality: 200 mg of instant sea salt in each 1L of reverse osmosis water, with the conductivity of 450-550 μS/cm; pH of 6.5-8.5; and hardness of 50-100 mg/L CaCO3), the experimental animal use license number is: SYXK (Zhe) 2012-0171, and the breeding management met the requirements of the international AAALAC certification (certification number: 001458).
# (1) Grouping: Polypeptide group: prepared into a stock solution of 20.0 mg/mL with ultrapure water and stored at −20° C.
# Positive control group: prednisone, as white powder, with batch number C10016501, Shanghai Macklin Biochemical Technology Co., Ltd., stored at 4° C.; prepared into a 15.0 mg/mL stock solution with DMSO, and stored in aliquots at −20° C.
# Normal control group and model control group.
# (2) Experimental method: 3 dpf wild-type AB strain zebrafishes were randomly selected and placed in a 6-well plate, with 30 zebrafishes in each well (experimental group). Except for the normal control group, all other experimental groups were given TNBS in water to establish the zebrafish model of intestinal mucosal injury. After 2 days of treatment at 28° C., TNBS was removed, and polypeptide compound in water (at concentrations shown in Table 4) was given respectively, and for the positive control, prednisone was 15.0 μg/mL. A normal control group (healthy group) and a model control group (intestinal mucosal injury group) were set up at the same time. The capacity of each well (experimental group) was 3 mL. After 2 days of treatment at 28° C., 10 zebrafishes were randomly selected from each experimental group and photographed under a dissecting microscope. NIS-Elements D 3.20 advanced image processing software was used to analyze and collect data, and the intestinal lumen area of the zebrafish was analyzed. The statistical analysis results of this indicator were used to evaluate the efficacy of the samples in relieving colitis. The statistics results were expressed as mean±SE. SPSS26.0 software was used for statistical analysis, and p<0.05 indicates statistically significant difference.
# The concentration gradient of the test substances set in this experimental system was 250 μg/mL, 500 μg/mL, and 1000 μg/mL. […] When the concentration of the test substance was further increased for intervention, the death phenomenon of zebrafishes was found in the group; therefore, in the subsequent rounds of activity evaluation, each test polypeptide compound was uniformly administered at 1000 μg/mL for intervention.
row,Substance,Activity in relieving intestinal lumen dilatation
1,KEPVPQAKP[dR]KVAAQ [Compound 70],* (* p < 0.05)
2,SSEDIKEKEPVPQAKPRKVAAQ [Compound 97],*** (*** p < 0.001)
3,EPVGQAK [Compound 77],−
4,KEPVPQ[dA]KPRKVAAQ [Compound 67],* (* p < 0.05)
5,Lys-Val-Ala-Ala (KVAA; printed: Lys-Val-Ala-Ala) [Compound 16],+
6,Gln-Ala-Lys-Pro (QAKP; printed: Gln-Ala-Lys-Pro) [Compound 17],+
7,KEP[dV]PQAKPRKVAAQ [Compound 64],+
8,EPVP[dQ]AK [Compound 82],+
9,KEAVPQAKPRKVAAQ [Compound 21],+
10,EPVAQAK [Compound 54],*** (*** p < 0.001)
11,Pro-Val-Pro-Ile-Ala (PVPIA; printed: Pro-Val-Pro-Ile-Ala) [Compound 41],+
12,Val-Pro-Gln-Ala (VPQA; printed: Val-Pro-Gln-Ala) [Compound 13],−
13,EPV[dP]QAK [Compound 81],+
14,RKDVYKEPVPQAKPRKVAAQ [Compound 91],+
15,E[dP]VPQAK [Compound 79],+
16,KE[dP]VPQAKPRKVAAQ [Compound 63],*** (*** p < 0.001)
17,KEGVPQAKPRKVAAQ [Compound 31],* (* p < 0.05)
18,PVPQAK [Compound 44],−

row,Substance,Activity in relieving intestinal lumen dilatation
1,DPVPQAK [Compound 49],* (* p < 0.05)
2,EPVPEAK [Compound 55],* (* p < 0.05)
3,AEPVPQAKPRKVAAQ [Compound 19],+
4,EPVPQ[dA]K [Compound 83],* (* p < 0.05)
5,EPAPQAK [Compound 52],+
6,Pro-Val-Pro-Ala (PVPA; printed: Pro-Val-Pro-Ala) [Compound 42],+
7,GPETAFLRKEPVPQAKPRKVAAQ [Compound 95],** (** p < 0.01)
8,KEPVPQAK[dP]RKVAAQ [Compound 69],+
9,EPVPQAKPR [Compound 57],** (** p < 0.01)
10,RKDVYPVPQ [Compound 94],*** (*** p < 0.001)
11,KEPV[dP]QAKPRKVAAQ [Compound 65],* (* p < 0.05)
12,EGVPQAK [Compound 76],+
13,K[dE]PVPQAKPRKVAAQ [Compound 62],* (* p < 0.05)
14,KEPVPQAKPAKVAAQ [Compound 27],+
15,Pro-Val-Pro-Gln-Ala (PVPQA; printed: Pro-Val-Pro-Gln-Ala) [Compound 39],+
16,NPVPQAK [Compound 50],* (* p < 0.05)
17,KEPVPQAKARKVAAQ [Compound 26],* (* p < 0.05)
18,KEPVPQAKPRKAAAQ [Compound 29],* (* p < 0.05)
